Each structure is given as a SMILES string.

Consider one molecule from patent US20180092845A1, “ENZYME-RESPONSIVE NANOPARTICLES” (THE REGENTS OF THE UNIVERSITY OF CALIFORNIA, priority 2015, published 2018).

The subject of data set [1] is healthy nu/nu mice. Description: in vivo. Conditions: 30 mg/kg IV; listed as clinically formulated paclitaxel. As to the method:
(§1) Mouse weight was recorded once daily until all animals in the cohort returned to, or surpassed, their weight on the day of injection. […] Two additional cohorts (6 mice, 3 per group) were treated with 15 mg/kg and 30 mg/kg of clinically formulated paclitaxel (a 6 mg/mL suspension in 1:1 ethanol:Cremophor EL®, diluted with 1×DPBS prior to injection).

A further data set in a line: in vivo. As to conditions: female, nu/nu, mouse, in vivo, iv. The method, then:
as §1

Data set [2] has as its system healthy nu/nu mice. Conditions: suspension in 1:1 Cremophor EL to ethanol; literature; cited from earlier work.

Regarding `CC(=O)O[C@H]1C(=O)[C@@]2(C)[C@H]([C@H](OC(=O)c3ccccc3)[C@]3(O)C[C@H](OC(=O)[C@H](O)[C@@H](NC(=O)c4ccccc4)c4ccccc4)C(C)=C1C3(C)C)[C@]1(OC(C)=O)CO[C@@H]1C[C@@H]2O` [PTX, paclitaxel], the lethality in the data set with healthy nu/nu mice [1] is 1 out of the 3 animals died within 30 minutes post-injection and also died within an hour of injection. In the data set “in vivo”, this molecule came in with a 50% lethal dose (LD50) of 30 mg/kg and an MTD of 15 mg/kg. The “MTD in mice previously established” value in the data set on healthy nu/nu mice [2] is 10 to 30 mg/kg.

One may read the LD50 as the dose expected to kill half of the subjects tested.
